Assay results reported in paper PMC8848768, “Synthesis and evaluation of potent yaku'amide A analogs” (Chemical Science, 2022).
Like-named read-outs stand apart in the source and are kept apart here. Numbered stars: 1 amine (or outer) side, 2 acyl side, 3 side chain; on linkers, the order of the positions; unused ones are H or OH. Square brackets hold non-standard residues; d marks the D form. Peptide text beside a SMILES is read from it. * marks the point of attachment. Heptanoyl(3-oxo-2,2,4S,6-Me) = CC(C)C[C@H](C)C(=O)C(C)(C)C(=O)*; NH((S)-1-NMe2-3-Me-but-2-yl) = CC(C)[C@@H](CN(C)C)N*; Ile(3R-OH) = CC[C@@](C)(O)[C@H](N)C(=O)O; dVal(3-OH) = CC(C)(O)[C@@H](N)C(=O)O; d(aIle) = CC[C@H](C)[C@@H](N)C(=O)O; Val(3-OH) = CC(C)(O)[C@H](N)C(=O)O; X1 = CCC(CC)=C(N[*:1])C(=O)[*:2]; NHCH2CH2NMe2 = CN(C)CCN*; ΔVal = CC(C)=C(N)C(=O)O

Experiments:
[1] = test system: JURKAT; assay: cells; conditions: read-out: Aver IC50, JURKAT
Description: (§1) The antiproliferative activity profiles of 1a, its full-length analogs 2a and 2b, and its partial structures (23, 24, 26, and 30) were determined by in vitro screening in 72 hours MTS cell proliferation assays against a panel of 18 different human cancer cell lines. […] The three peptides were also evaluated for their antiproliferative activity against the lung fibroblast MRC5 cell line.
(§2) Cells (40 µ L) are added into individual wells of a 384-well black/clear bottom plate on day zero at concentrations enabling continuous log growth over the course of the assay. On day one, compounds (or DMSO) are transferred using an ATS-liquid handler (100 nL per well) to individual wells containing cells and the cells are treated for 72 hours (37 °C, 5% CO 2) prior to measuring proliferation using MTS reagent following manufacturer’s instructions. Net OD values are determined by subtracting the average OD values of cells (measured on day 1, T = 0) from average total OD value of cells (measured on day 4, T = 72h). IC 50 values are calculated using proprietary software (IC 50 values normalized against all compounds). Results represent n>2 independent studies (in duplicate).
(§3) Table S1. Antiproliferative Data of Compounds 1a, 2a, 2b, 23, 24, 26, and 30.
(§4) Table S2. Human Cell Line Descriptions.
(§5) Human Cell Line* Description
(§6) *All cells were obtained from ATCC and are authenticated

[2] = test system: HT29; assay: cells; conditions: read-out: Aver IC50, HT29
Description: as §1, §2, §3, §4, §5, §6

[3] = test system: SNUC1; assay: cells; conditions: read-out: Aver IC50, SNUC1
Description: as §1, §2, §3, §4, §5, §6

[4] = test system: BXPC3; assay: cells; conditions: read-out: Aver IC50, BXPC3
Description: as §1, §2, §3, §4, §5, §6

[5] = test system: RAMOS; assay: cells; conditions: read-out: Aver IC50, RAMOS
Description: as §1, §2, §3, §4, §5, §6

[6] = test system: OVCAR3; assay: cells; conditions: read-out: Aver IC50, OVCAR3
Description: as §1, §2, §3, §4, §5, §6

[7] = test system: COLO678; assay: cells; conditions: read-out: Aver IC50, COLO678
Description: as §1, §2, §3, §4, §5, §6

[8] = test system: HL60; assay: cells; conditions: read-out: Aver IC50, HL60
Description: as §1, §2, §3, §4, §5, §6

[9] = test system: CALU6; assay: cells; conditions: read-out: Aver IC50, CALU6
Description: as §1, §2, §3, §4, §5, §6

[10] = test system: A375; assay: cells; conditions: read-out: Aver IC50, A375
Description: as §1, §2, §3, §4, §5, §6

[11] = test system: A549; assay: cells; conditions: read-out: Aver IC50, A549
Description: as §1, §2, §3, §4, §5, §6

[12] = test system: THP1; assay: cells; conditions: read-out: Aver IC50, THP1
Description: as §1, §2, §3, §4, §5, §6

[13] = test system: MV411; assay: cells; conditions: read-out: Aver IC50, MV411
Description: as §1, §2, §3, §4, §5, §6

[14] = test system: NCIH1048; assay: cells; conditions: read-out: Aver IC50, NCIH1048
Description: as §1, §2, §3, §4, §5, §6

[15] = test system: PANC1005; assay: cells; conditions: read-out: Aver IC50, PANC1005
Description: as §1, §2, §3, §4, §5, §6

[16] = test system: U937; assay: cells; conditions: read-out: Aver IC50, U937
Description: as §1, §2, §3, §4, §5, §6

[17] = test system: HCT116; assay: cells; conditions: read-out: Aver IC50, HCT116
Description: as §1, §2, §3, §4, §5, §6

[18] = test system: lung fibroblast MRC5 cell line; assay: cells; conditions: read-out: Aver IC50, MRC5
Description: as §1, §2, §3, §4, §5, §6

[19] = test system: MCF7; conditions: read-out: Aver IC50, MCF7; MCF7 (Breast Carcinoma); MTS, 72 hours, 37 °C, 5% CO2, 384-well; n>2 independent studies (in duplicate)
Description: as §1, §2, §3, §4, §5, §6

[20] = JURKAT (acute T-cell leukemia), MTS, 72 hours, 37 °C, 5% CO2, 384-well, n>2 independent studies (in duplicate)
[21] = HT29 (Colon Carcinoma), MTS, 72 hours, 37 °C, 5% CO2, 384-well, n>2 independent studies (in duplicate)
[22] = SNUC1 (Colon Carcinoma), MTS, 72 hours, 37 °C, 5% CO2, 384-well, n>2 independent studies (in duplicate)
[23] = BXPC3 (Pancreatic - Adenocarcinoma), MTS, 72 hours, 37 °C, 5% CO2, 384-well, n>2 independent studies (in duplicate)
[24] = RAMOS (Burkitt's lymphoma), MTS, 72 hours, 37 °C, 5% CO2, 384-well, n>2 independent studies (in duplicate)
[25] = OVCAR3 (Ovary - Adenocarcinoma), MTS, 72 hours, 37 °C, 5% CO2, 384-well, n>2 independent studies (in duplicate)
[26] = COLO678 (Colon Carcinoma), MTS, 72 hours, 37 °C, 5% CO2, 384-well, n>2 independent studies (in duplicate)
[27] = HL60 (Leukema - Promyelocytic), MTS, 72 hours, 37 °C, 5% CO2, 384-well, n>2 independent studies (in duplicate)
[28] = CALU6 (Lung - Adenocarcinoma), MTS, 72 hours, 37 °C, 5% CO2, 384-well, n>2 independent studies (in duplicate)
[29] = A375 (Malignant Melanoma), MTS, 72 hours, 37 °C, 5% CO2, 384-well, n>2 independent studies (in duplicate)
[30] = A549 (Lung - NSCLC), MTS, 72 hours, 37 °C, 5% CO2, 384-well, n>2 independent studies (in duplicate)
[31] = THP1 (Acute Monocytic Leukemia), MTS, 72 hours, 37 °C, 5% CO2, 384-well, n>2 independent studies (in duplicate)
[32] = MV411 (Acute Myeloid Leukemia), MTS, 72 hours, 37 °C, 5% CO2, 384-well, n>2 independent studies (in duplicate)
[33] = NCIH1048 (Lung - SCLC), MTS, 72 hours, 37 °C, 5% CO2, 384-well, n>2 independent studies (in duplicate)
[34] = PANC1005 (Pancreatic - Adenocarcinoma), MTS, 72 hours, 37 °C, 5% CO2, 384-well, n>2 independent studies (in duplicate)
[35] = U937 (Pro-monocytic, Human Myeloid Leukemia), MTS, 72 hours, 37 °C, 5% CO2, 384-well, n>2 independent studies (in duplicate)
[36] = HCT116 (Colon Carcinoma), MTS, 72 hours, 37 °C, 5% CO2, 384-well, n>2 independent studies (in duplicate)
[37] = MRC5 (Lung Fibroblast, noncancerous), MTS, 72 hours, 37 °C, 5% CO2, 384-well, n>2 independent studies (in duplicate)

| Compound | IC50 [19] | IC50 [1, 20] | IC50 [2, 21] | IC50 [3, 22] | IC50 [4, 23] | IC50 [5, 24] | IC50 [6, 25] | IC50 [7, 26] | IC50 [8, 27] | IC50 [9, 28] | IC50 [10, 29] | IC50 [11, 30] | IC50 [12, 31] | IC50 [13, 32] | IC50 [14, 33] | IC50 [15, 34] | IC50 [16, 35] | IC50 [17, 36] | IC50 [18, 37] | further results |
| --- | --- | --- | --- | --- | --- | --- | --- | --- | --- | --- | --- | --- | --- | --- | --- | --- | --- | --- | --- | --- |
| CC(=O)O[C@H]1C(=O)[C@@]2(C)[C@H]([C@H](OC(=O)c3ccccc3)[C@]3(O)C[C@H](OC(=O)[C@H](O)[C@@H](NC(=O)c4ccccc4)c4ccccc4)C(C)=C1C3(C)C)[C@]1(OC(C)=O)CO[C@@H]1C[C@@H]2O [Paclitaxel, reference compound] |  |  |  |  |  |  |  |  |  |  |  |  |  |  |  |  |  |  |  | IC50 ([1]; Homo sapiens, Jurkat, 72 h): 5.3 nM; IC50 ([2]; Homo sapiens, HT-29, 72 h): 6 nM; IC50 ([3]; Homo sapiens, SNU-C1, 72 h): 26.5 nM; IC50 ([4]; Homo sapiens, BXPC-3, 72 h): 5.5 nM; IC50 ([5]; Homo sapiens, Ramos, 72 h): 5.9 nM; IC50 ([6]; Homo sapiens, OVCAR-3, 72 h): 3 nM; IC50 ([7]; Homo sapiens, COLO-678, 72 h): 24 nM; IC50 ([8]; Homo sapiens, HL-60, 72 h): 9.7 nM; IC50 ([9]; Homo sapiens, Calu-6, 72 h): 3.6 nM; IC50 ([10]; Homo sapiens, A-375, 72 h): 7.7 nM; IC50 ([11]; Homo sapiens, A549, 72 h): 4.6 nM; IC50 ([12]; Homo sapiens, THP-1, 72 h): 6.8 nM; IC50 ([13]; Homo sapiens, MV4-11, 72 h): 4.4 nM; IC50 ([14]; Homo sapiens, NCI-H1048, 72 h): 4.7 nM; IC50 ([15]; Homo sapiens, Panc1005, 72 h): 7.4 nM; IC50 ([16]; Homo sapiens, U-937, 72 h): 3 nM; IC50 ([17]; Homo sapiens, HCT-116, 72 h): 3.4 nM; IC50 ([18]; Homo sapiens, MRC5, 72 h): 8.8 nM |
| CCC(CC)=C(NC(=O)CNC(=O)C(NC(=O)[C@@H](NC(=O)C(C)(C)C(=O)[C@@H](C)CC(C)C)[C@](C)(O)CC)=C(C)C)C(=O)N[C@@H](C(=O)N[C@@H](C(=O)N[C@@H](C(=O)N[C@H](C(=O)NC(C(=O)N[C@H](C)C(=O)N[C@@H](C(=O)N[C@H](C(=O)NC(C(=O)N[C@H](CN(C)C)C(C)C)=C(C)C)C(C)C)C(C)C)=C(C)C)C(C)(C)O)C(C)(C)O)[C@@H](C)CC)C(C)C [Compound 2b] ({Heptanoyl(3-oxo-2,2,4S,6-Me)}-[Ile(3R-OH)][ΔVal]G[X1][dV][d(aIle)][dVal(3-OH)][Val(3-OH)][ΔVal][dA][dV]V[ΔVal]-{NH((S)-1-NMe2-3-Me-but-2-yl)}) | 13000 nM | 13400 nM | 5250 nM | 58.3 nM | 9310 nM | 1200 nM | 186 nM | 6500 nM | 465 nM | 1000 nM | 254 nM | 249 nM | 9690 nM | 48.8 nM | 2370 nM | 8810 nM | 947 nM | 4260 nM | 17500 nM |  |
| CCC(CC)=C(NC(=O)CNC(=O)C(NC(=O)[C@@H](NC(=O)C(C)(C)C(=O)[C@@H](C)CC(C)C)[C@](C)(O)CC)=C(C)C)C(=O)N[C@@H](C(=O)N[C@@H](C(=O)N[C@@H](C(=O)N[C@H](C(=O)NC(C(=O)N[C@H](C)C(=O)NCCN(C)C)=C(C)C)C(C)(C)O)C(C)(C)O)[C@@H](C)CC)C(C)C [Compound 30] ({Heptanoyl(3-oxo-2,2,4S,6-Me)}-[Ile(3R-OH)][ΔVal]G[X1][dV][d(aIle)][dVal(3-OH)][Val(3-OH)][ΔVal][dA]-NHCH2CH2NMe2) | 12600 nM | 22800 nM | > 25000 nM | 20600 nM | > 25000 nM | 24300 nM | 12600 nM | > 25000 nM | 20000 nM | > 25000 nM | 24700 nM | 20600 nM | > 25000 nM | 2700 nM | > 25000 nM | > 25000 nM | > 25000 nM | > 25000 nM | > 25000 nM |  |
